This assay has as its target T1, histamine-3 receptor (Rattus norvegicus, UniProt Q9QYN8).
T1 construct: from tissue; host or cells: male Sprague-Dawley rat brain cortex membranes
Nature of the assay: Histamine-3 receptor binding, (3H)-N-α-methylhistamine displacement in rat cortical membranes. The settings on record: male Sprague-Dawley rat brain cortical membranes; (3H)-N-α-methylhistamine ~0.6 nM; 30 minutes at 25° C.; Cheng-Prusoff. Here is the method:
Briefly, male Sprague-Dawley rat brain cortices were homogenized (1 g tissue/10 mL buffer) in 50 mM Tris-HCl/5 mM EDTA containing protease inhibitor cocktail (Calbiochem) using a polytron set at 20,500 rpm. Homogenates were centrifuged for 20 minutes at 40,000×g. The supernatant was decanted, and pellets were weighed. The pellet was resuspended by polytron homogenization in 40 mL 50 mM Tris-HCl/5 mM EDTA with protease inhibitors and centrifuged for 20 minutes at 40,000×g. […] Test compounds were dissolved in DMSO to provide 20 mM solution, serially diluted and then added to the incubation mixtures prior to initiating the incubation assay by addition of the membranes. Thioperamide (3 μM) was used to determine nonspecific binding. Binding incubations were conducted for 30 minutes at 25° C. and terminated by addition of 2 mL of ice cold 50 mM Tris-HCl (pH 7.7) and filtration through 0.3% polyethylenimine-soaked Unifilter plates (Packard). These filters were washed 4 additional times with 2 mL of ice-cold 50 mM Tris-HCl and dried for 1 hour. Radioactivity was determined using liquid scintillation counting techniques. Results were analyzed by Hill transformation and Ki values were determined using the Cheng-Prusoff equation.

Structures are written as SMILES.

By Ki is commonly meant a measure of affinity in units of concentration, obtained from inhibition or displacement.

T1 sequence (Q9QYN8 whole entry): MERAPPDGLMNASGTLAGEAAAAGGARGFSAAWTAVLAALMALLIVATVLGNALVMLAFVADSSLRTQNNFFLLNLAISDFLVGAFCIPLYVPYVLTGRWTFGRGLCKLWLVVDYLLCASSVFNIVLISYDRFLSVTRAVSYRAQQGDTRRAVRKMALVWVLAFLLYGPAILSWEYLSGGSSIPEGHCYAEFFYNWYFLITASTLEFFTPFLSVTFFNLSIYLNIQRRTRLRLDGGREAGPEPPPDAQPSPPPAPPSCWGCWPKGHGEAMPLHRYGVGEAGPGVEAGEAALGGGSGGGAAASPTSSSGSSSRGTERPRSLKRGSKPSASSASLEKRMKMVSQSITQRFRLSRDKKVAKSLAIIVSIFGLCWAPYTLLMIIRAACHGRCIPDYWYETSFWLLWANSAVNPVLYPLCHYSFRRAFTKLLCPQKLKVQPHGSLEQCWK

For the compound `CC(=O)N(C)[C@@H]1CCN(CCCOc2ccc(-c3ccc(C#N)cc3)cc2)C1` [Example 111], the Ki turned out to be 11 nM. That is a double-digit nanomolar value. As to `Cc1cccc(S(=O)(=O)N[C@@H]2CCN(CCCOc3ccc(-c4ccc(C#N)cc4)cc3)C2)c1` [Example 47], affinity was put at a Ki of 12 nM.

As to `CN(C)S(=O)(=O)N(C)[C@@H]1CCN(CCCOc2ccc(-c3ccc(C#N)cc3)cc2)C1` [Example 124], the Ki turned out to be 2.9 nM. The result for `N#Cc1ccc(-c2ccc(OCCCN3CC[C@@H](NS(=O)(=O)c4ccc(C(F)(F)F)cc4)C3)cc2)cc1` [Example 23] reads 33 nM. On to `O=C(c1ccc(OCCCN2CC[C@@H](NS(=O)(=O)c3ccc(Cl)cc3)C2)cc1)C1CC1` [Example 58, 4-chloro-N-((3R)-1-{3-[4-(cyclopropylcarbonyl)phenoxy]propyl}pyrrolidinyl)benzenesulfonamide], for which the Ki was determined as 3.9 nM.

The compound `N#Cc1ccc(S(=O)(=O)N[C@@H]2CCN(CCCOc3ccc(-c4ccccn4)cc3)C2)cc1` [Example 103, 4-cyano-N-((3R)-1-{3-[4-(2-pyridinyl)phenoxy]propyl}pyrrolidinyl)benzenesulfonamide] yielded a Ki of 195 nM. Compared with the last compound, the Ki is about 50-fold higher. For `O=C(c1ccc(OCCCN2CC[C@@H](NS(=O)(=O)C=Cc3ccccc3)C2)cc1)C1CC1` [Example 88, N-((3R)-1-{3-[4-(cyclopropylcarbonyl)phenoxy]propyl}pyrrolidinyl)-2-phenylethenesulfonamide] the value was 6.8 nM; for `CN(C(=O)N1CCCC1)[C@@H]1CCN(CCCOc2ccc(-c3ccc(C#N)cc3)cc2)C1` [Example 116], 14 nM; for `N#Cc1ccc(-c2ccc(OCCCN3CC[C@@H](NS(=O)(=O)c4ccc(C(F)(F)F)cc4)C3)cc2)cc1` [Example 48], 60 nM. In turn, `N#Cc1ccc(-c2ccc(OCCCN3CC[C@@H](NS(=O)(=O)c4ccc(Br)cc4)C3)cc2)cc1` [Example 16, 4-bromo-N-((3R)-1-{3-[(4′-cyano[1,1′-biphenyl]-4-yl)oxy]propyl}pyrrolidinyl)benzenesulfonamide] returned a Ki of 67 nM. For `CC(=O)c1ccc(OCCCN2CC[C@@H](NS(=O)(=O)c3cccc4cnccc34)C2)cc1` [Example 75, N-{(3R)-1-[3-(4-acetylphenoxy)propyl]pyrrolidinyl}-5-isoquinolinesulfonamide] the value was 19 nM; for `CN(C)C(=O)N(C(=O)N(C)C)[C@@H]1CCN(CCCOc2ccc(-c3ccc(C#N)cc3)cc2)C1` [Example 148], 291 nM; for `N#Cc1ccc(-c2ccc(OCCCN3CC[C@@H](NS(=O)(=O)c4ccccc4F)C3)cc2)cc1` [Example 29], 5.9 nM. In turn, `CCC(C)(C)OC(=O)N(C)[C@@H]1CCN(CCCOc2ccc(-c3ccc(C#N)cc3)cc2)C1` [Example 114, tert-pentyl (3R)-1-{3-[(4′-cyano[1,1′-biphenyl]-4-yl)oxy]propyl}pyrrolidinyl(methyl)carbamate] yielded a Ki of 65 nM. For `O=C(c1ccc(OCCCN2CC[C@@H](NS(=O)(=O)c3cccs3)C2)cc1)C1CC1` [Example 81, N-((3R)-1-{3-[4-(cyclopropylcarbonyl)phenoxy]propyl}pyrrolidinyl)-2-thiophenesulfonamide] the value was 5 nM; for `CN(C)[C@@H]1CCN(CCCOc2ccc(-c3ccc(C#N)cc3)cc2Cl)C1` [Example 171, 3′-chloro-4′-{3-[(3R)-3-(dimethylamino)-1-pyrrolidinyl]propoxy}-1,1′-biphenyl-4-carbonitrile], 41 nM. For `COc1ccc(OC)c(S(=O)(=O)N[C@@H]2CCN(CCCOc3ccc(C(=O)C4CC4)cc3)C2)c1` [Example 63, N-((3R)-1-{3-[4-(cyclopropylcarbonyl)phenoxy]propyl}pyrrolidinyl)-2,5-dimethoxybenzenesulfonamide] the value was 12 nM. Regarding `N#Cc1ccc(C(=O)N[C@@H]2CCN(CCCOc3ccc(-c4ccc(C#N)cc4)cc3)C2)cc1` [Example 140, 4-cyano-N-((3R)-1-{3-[(4′-cyano[1,1′-biphenyl]-4-yl)oxy]propyl}pyrrolidinyl)benzamide], the Ki worked out at 220 nM. For `CC(=O)Nc1ccc(S(=O)(=O)N[C@@H]2CCN(CCCOc3ccc(-c4ccc(C#N)cc4)cc3)C2)cc1Cl` [Example 53, N-(2-chloro-4-{[((3R)-1-{3-[(4′-cyano[1,1′-biphenyl]-4-yl)oxy]propyl}pyrrolidinyl)amino]sulfonyl}phenyl)acetamide] the value was 3.9 nM.

As to `Cc1c(S(=O)(=O)N[C@@H]2CCN(CCCOc3ccc(C(=O)C4CC4)cc3)C2)sc2ccc(Cl)cc12` [Example 82, 5-chloro-N-((3R)-1-{3-[4-(cyclopropylcarbonyl)phenoxy]propyl}pyrrolidinyl)-3-methyl-1-benzothiophene-2-sulfonamide], the affinity corresponds to a Ki of 21 nM. The result for `COc1ccc(S(=O)(=O)N[C@@H]2CCN(CCCOc3ccc(-c4ccc(C#N)cc4)cc3)C2)cc1` [Example 20] reads 12 nM; that for `CN(C(=O)CC(C)(C)C)[C@@H]1CCN(CCCOc2ccc(-c3ccc(C#N)cc3)cc2)C1` [Example 112], 13 nM; that for `N#Cc1ccc(-c2ccc(OCCCN3CC[C@@H](NS(=O)(=O)c4cc(C(F)(F)F)cc(C(F)(F)F)c4)C3)cc2)cc1` [Example 38], 132 nM.

As for `C=CCOC(=O)N[C@@H]1CCN(CCCOc2ccc(-c3ccc(C#N)cc3)cc2)C1` [Example 132, allyl (3R)-1-{3-[(4′-cyano[1,1′-biphenyl]-4-yl)oxy]propyl}pyrrolidinylcarbamate], affinity was put at a Ki of 74 nM. `CN(C(=O)c1cccnc1)[C@@H]1CCN(CCCOc2ccc(-c3ccc(C#N)cc3)cc2)C1` [Example 121] came in with a Ki of 16 nM. For `N#Cc1ccc(-c2ccc(OCCCN3CC[C@@H](N(C(=O)N4CCOCC4)C(=O)N4CCOCC4)C3)cc2)cc1` [Example 150] the value was 267 nM; for `N#Cc1ccc(-c2ccc(OCCCN3CC[C@@H](NS(=O)(=O)c4cccc(C#N)c4)C3)cc2)cc1` [Example 34, 3-cyano-N-((3R)-1-{3-[(4′-cyano[1,1′-biphenyl]-4-yl)oxy]propyl}pyrrolidinyl)benzenesulfonamide], 11 nM.

Regarding `CCCCOc1ccc(S(=O)(=O)N[C@@H]2CCN(CCCOc3ccc(-c4ccc(C#N)cc4)cc3)C2)cc1` [Example 41, 4-butoxy-N-((3R)-1-{3-[(4′-cyano[1,1′-biphenyl]-4-yl)oxy]propyl}pyrrolidinyl)benzenesulfonamide], the Ki worked out at 48 nM.

Turning to `CN(C(=O)c1ccco1)[C@@H]1CCN(CCCOc2ccc(-c3ccc(C#N)cc3)cc2)C1` [Example 122], the Ki amounted to 20 nM. With `CN(C(=O)c1csc(-c2cccnc2)n1)[C@@H]1CCN(CCCOc2ccc(-c3ccc(C#N)cc3)cc2)C1` [Example 123], affinity was put at a Ki of 5.6 nM.

For `COc1cc(-c2ccc(C#N)cc2)ccc1OCCCN1CC[C@@H](N(C)C)C1` [Example 173, 4′-{3-[(3R)-3-(dimethylamino)-1-pyrrolidinyl]propoxy}-3′-methoxy-1,1′-biphenyl-4-carbonitrile], the Ki is 27 nM.

The compound `CC(=O)Nc1ccc(S(=O)(=O)N[C@@H]2CCN(CCCOc3ccc(C(=O)C4CC4)cc3)C2)cc1Cl` [Example 96, N-(2-chloro-4-{[((3R)-1-{3-[4-(cyclopropylcarbonyl)phenoxy]propyl}pyrrolidinyl)amino]sulfonyl}phenyl)acetamide] yielded a Ki of 1.2 nM.

The compound `CC(=O)c1ccc(OCCCN2CC[C@@H](NS(=O)(=O)c3cccc(F)c3)C2)cc1` [Example 72, N-{(3R)-1-[3-(4-acetylphenoxy)propyl]pyrrolidinyl}-3-fluorobenzenesulfonamide] had a Ki of 7.9 nM. This Ki lies about 6.6-fold higher than the previous one.

As to `Cc1ccc(S(=O)(=O)N[C@@H]2CCN(CCCOc3ccc(C(=O)C4CC4)cc3)C2)cc1Cl` [Example 87, 3-chloro-N-((3R)-1-{3-[4-(cyclopropylcarbonyl)phenoxy]propyl}pyrrolidinyl)-4-methylbenzenesulfonamide], the Ki amounted to 4.9 nM. Against the preceding compound, the Ki is about 1.6-fold lower. The compound `O=C(c1ccc(OCCCN2CC[C@@H](NS(=O)(=O)c3cccc4ccncc34)C2)cc1)C1CC1` [Example 95, N-((3R)-1-{3-[4-(cyclopropylcarbonyl)phenoxy]propyl}pyrrolidinyl)-8-isoquinolinesulfonamide] displayed an inhibitory constant (Ki) of 4.6 nM. For `CN(C(=O)NC(C)(C)C)[C@@H]1CCN(CCCOc2ccc(-c3ccc(C#N)cc3)cc2)C1` [Example 117, N′-tert-butyl-N-((3R)-1-{3-[(4′-cyano[1,1′-biphenyl]-4-yl)oxy]propyl}pyrrolidinyl)-N-methylurea], the affinity corresponds to a Ki of 45 nM. As for `N#Cc1ccc(-c2ccc(OCCCN3CC[C@@H](NS(=O)(=O)c4cccc(F)c4)C3)cc2)cc1` [Example 49], the Ki turned out to be 13 nM. The result for `CN(C)C(=O)N[C@@H]1CCN(CCCOc2ccc(-c3ccc(C#N)cc3)cc2)C1` [Example 135] reads 132 nM.

Consider `N#Cc1ccc(-c2ccc(OCCCN3CC[C@@H](NC(=O)c4cccnc4)C3)cc2)cc1` [Example 141], for which affinity was put at a Ki of 342 nM. For `O=C(c1ccc(OCCCN2CC[C@@H](NS(=O)(=O)c3ccccc3F)C2)cc1)C1CC1` [Example 68, N-((3R)-1-{3-[4-(cyclopropylcarbonyl)phenoxy]propyl}pyrrolidinyl)-2-fluorobenzenesulfonamide] the value was 2.8 nM; for `CN(C)[C@@H]1CCN(CCCOc2c(F)cc(-c3ccc(C#N)cc3)cc2F)C1` [Example 172, 4′-{3-[(3R)-3-(dimethylamino)-1-pyrrolidinyl]propoxy}-3′,5′-difluoro-1,1′-biphenyl-4-carbonitrile], 13 nM.

The values above are taken from patent US6620839B2, “1,3-disubstituted and 1,3,3-trisubstituted pyrrolidines as histamine-3 receptor ligands and their therapeutic applications” (Abbott Laboratories, priority 2000, dated 2003).
